Experiments:
[1] = system: K562; assay: MTT assay, K562 cells; assay type: cell-based; conditions: Homo sapiens, K562 (no p53)
[2] = system: AML cells; assay: MTT assay, primary AML cells; assay type: cell-based, human; conditions: 30 μM, 6 patients
[3] = system: ALL cells; assay: MTT assay, primary ALL cells; assay type: cell-based, human; conditions: 30 μM, 2 patients
[4] = molecular target: T1, human CuZnSOD (Homo sapiens, UniProt P00441); assay: In vitro SOD activity assay (xanthine/xanthine oxidase, XTT), human CuZnSOD; assay type: biochemical; conditions: purified enzyme; read-out: IC50, inhibition of human CuZnSOD
T1 construct: purchased Sigma
T1 sequence (P00441 whole entry): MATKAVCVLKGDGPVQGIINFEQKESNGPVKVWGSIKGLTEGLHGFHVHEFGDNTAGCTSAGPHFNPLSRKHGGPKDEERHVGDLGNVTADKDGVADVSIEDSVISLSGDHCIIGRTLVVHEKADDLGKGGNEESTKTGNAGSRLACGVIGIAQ

[5] = system: normal lymphocytes; assay: DNA fragmentation in normal lymphocytes; assay type: cell-based, human; conditions: 0-30 μM, additional 3 days
[6] = system: HL-60; assay: Release of cytochrome c to cytosol; assay type: cell-based, human
[7] = system: leukemia cells from a CML (chronic myelogenous leukemia) patient in relapsed blast crisis; assay: Induction of apoptosis in primary leukemia cells from a CML patient; assay type: cell-based, human; conditions: in vitro
[8] = system: CuZnSOD; assay: Inhibition of CuZnSOD by estrogen derivatives; assay type: biochemical; conditions: FIG. 20
[9] = system: HL-60; assay: MTT assay, HL-60 cells; assay type: cell-based; conditions: Homo sapiens, HL-60 (no p53)
[10] = system: PHA-treated lymphocytes; assay: MTT assay, PHA-stimulated lymphocytes; assay type: cell-based, human; conditions: 3-day drug incubation

COc1cc2c(cc1O)CC[C@@H]1[C@@H]2CC[C@]2(C)[C@@H](O)CC[C@@H]12 [2-ME, 1,3,5(10)-estratrien-2,3,17b-triol 2 methylether]
IC50 [1]: < 1 µM
cell survival [2]: 49.6%
cell survival [3]: 56.5%
IC50 [4]: ~20 µM
nucleosomal DNA fragmentation [5]: no nucleosomal DNA fragmentation was detected
cytosolic cytochrome c ([6]; at 12 and 14 h): significant amounts of cytosolic cytochrome c were detected
cytosolic cytochrome c ([6]; during the first 10 h): no cytochrome c was present in cytosol
apoptosis in primary CML cells [7]: induced apoptosis
inhibition of SOD activity [8]: substantially inhibited SOD activity
IC50 [9]: < 1 µM
viability of PHA-treated lymphocytes [10]: remained viable
proliferation of PHA-treated lymphocytes ([10]; MTT, PHA 5 μg/ml): inhibited the proliferation
